Some test systems named below: OVCAR-4 ovarian; OVCAR-8 ovarian; SW-620 colon; OVCAR-5 ovarian; TK-10 renal; NCI-H23 lung; BT-549 breast; CAKI-1 renal; LOX IMVI melanoma.
Common to all, as to test: DTP human tumour cell line panel, 48 h

SMILES strings stand for the structures.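 A five-concentration, 48-hour dose response in 96-well plates underlies each endpoint, interpolated linearly between surrounding concentrations. GI50 is the concentration that inhibits growth by half. TGI: concentration producing complete growth inhibition.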 A value given as a limit tells only on which side of the number the result lay.

The TGI is the concentration at which net growth stops. A higher TGI goes with less potent growth arrest. Take `CCOP(=O)(OCC)C(C(=O)OC)C(=O)C(=O)Nc1cccc(O)c1` (stereo not given): the TGI with OVCAR-4 ovarian, in the test on OVCAR-8 ovarian, in the test with SW-620 colon, in the test on OVCAR-5 ovarian, with TK-10 renal and with NCI-H23 lung was above 100 µM each time. The total growth inhibition concentration (TGI) in the test with BT-549 breast, in the test with CAKI-1 renal and in the test with LOX IMVI melanoma was above 100 µM each time.
As to `CCc1ccc(COC(=O)C2=C(C)NC(C)=C(C(=O)OCc3ccc(CC)cn3)C2C2=COCCO2)nc1`, the TGI in the test with OVCAR-4 ovarian was 66.9 µM; in the test with OVCAR-8 ovarian, above 100 µM; in the test with SW-620 colon, 80.4 µM; in the test with OVCAR-5 ovarian, 69.3 µM; in the test on TK-10 renal, above 100 µM; in the test on NCI-H23 lung, 51 µM. Moreover, the figures for the TGI in the test with BT-549 breast, in the test with CAKI-1 renal and with LOX IMVI melanoma were 31.1 µM, 88.5 µM and 29.1 µM, respectively.
As to `O=C(NNC(=S)NC1CCCCC1)C12CC3CC(CC(C3)C1)C2`, the TGI in the test with OVCAR-4 ovarian, in the test with OVCAR-8 ovarian, in the test on SW-620 colon, with OVCAR-5 ovarian, in the test on TK-10 renal and in the test with NCI-H23 lung was above 100 µM each time. Besides, the TGI with BT-549 breast, with CAKI-1 renal and in the test on LOX IMVI melanoma was above 100 µM each time.
With `Cc1cc2nc3ccccc3n2c2nc(N)ccc12`, the total growth inhibition concentration (TGI) with OVCAR-4 ovarian was above 100 µM; in the test on OVCAR-8 ovarian, 80.4 µM; in the test on SW-620 colon it was above 100 µM; in the test with OVCAR-5 ovarian it was above 100 µM; in the test on TK-10 renal it was above 100 µM; in the test with NCI-H23 lung, above 100 µM. The TGI with BT-549 breast, with CAKI-1 renal and in the test with LOX IMVI melanoma was above 100 µM throughout.
In the case of `COC(C)(C)/C=C/c1[nH]c2ccccc2c1CC(=O)NCCc1cn(C(c2ccccc2)(c2ccccc2)c2ccccc2)cn1`, the TGI in the test with OVCAR-4 ovarian was above 100 µM; in the test with OVCAR-8 ovarian, above 100 µM; in the test on SW-620 colon, above 100 µM; in the test on OVCAR-5 ovarian, above 30.5 µM; with TK-10 renal it was above 40.5 µM; in the test with NCI-H23 lung, 22.9 µM. Moreover, the TGI in the test on BT-549 breast is above 75.7 µM; with CAKI-1 renal, above 100 µM; with LOX IMVI melanoma, above 51.3 µM.
`CN(C)c1c(C2OC(CO)C(O)C2O)c(=O)c1=O` (stereo not given): the TGI in the test with OVCAR-4 ovarian, in the test on OVCAR-8 ovarian, with SW-620 colon, in the test with OVCAR-5 ovarian, in the test on TK-10 renal and with NCI-H23 lung was above 100 µM throughout. The TGI in the test on BT-549 breast, in the test with CAKI-1 renal and in the test with LOX IMVI melanoma was above 100 µM throughout.
For `CN(CCCNC(=O)c1cn(C)c2c1Cc1ccccc1-2)CCCNC(=O)c1cn(C)c2c1Cc1ccccc1-2`, the concentration for total growth inhibition (TGI) is 26.8 µM with OVCAR-4 ovarian; 29.8 µM in the test on OVCAR-8 ovarian; 18.5 µM in the test with SW-620 colon; 29.9 µM with OVCAR-5 ovarian; 25.1 µM with TK-10 renal; 29.5 µM in the test on NCI-H23 lung. The TGI in the test on BT-549 breast was 39.2 µM; with CAKI-1 renal it was 28.4 µM; in the test with LOX IMVI melanoma it was 24.6 µM.
Take `CCCc1cc(COC)c(C#N)c(=O)[nH]1`: the concentration for total growth inhibition (TGI) in the test on OVCAR-4 ovarian, in the test with OVCAR-8 ovarian, in the test on SW-620 colon, with OVCAR-5 ovarian, with TK-10 renal and in the test on NCI-H23 lung was above 100 µM each time. The TGI in the test on BT-549 breast, with CAKI-1 renal and with LOX IMVI melanoma was above 100 µM in each case.
On to `CCC(C)[C@@H](Nc1c(O)c2c(c(O)c1Cl)C(=O)C=CC2=O)C(=O)OC` (stereo not given in full), for which the TGI was 8.12 µM in the test on OVCAR-4 ovarian; above 10 µM in the test with OVCAR-8 ovarian; above 10 µM in the test on SW-620 colon; above 10 µM with OVCAR-5 ovarian; above 10 µM in the test on TK-10 renal; 5.7 µM in the test on NCI-H23 lung. For the same compound, the TGI in the test on BT-549 breast, in the test on CAKI-1 renal and in the test with LOX IMVI melanoma was above 10 µM each time.
As for `O=[N+]([O-])c1ccc(-n2nc3ccc4c(no[n+]4[O-])c3n2)cc1`, the TGI in the test on OVCAR-4 ovarian, with OVCAR-8 ovarian, in the test with SW-620 colon, in the test on OVCAR-5 ovarian, with TK-10 renal and in the test on NCI-H23 lung was above 100 µM each time. Besides, the TGI in the test on BT-549 breast, in the test with CAKI-1 renal and in the test with LOX IMVI melanoma was above 100 µM each time.
For orientation: GI50 means the concentration giving 50% growth inhibition. Turning to `Cc1ccc2c(=O)cc(-c3ccc4ccccc4c3)[nH]c2n1`, the TGI in the test with OVCAR-4 ovarian is 93.2 µM; in the test on OVCAR-8 ovarian, above 100 µM; in the test with SW-620 colon, above 100 µM; in the test with OVCAR-5 ovarian it was above 100 µM; with TK-10 renal, above 100 µM; in the test on NCI-H23 lung, 28.7 µM. The total growth inhibition concentration (TGI) is above 100 µM in the test with BT-549 breast, above 100 µM in the test on CAKI-1 renal and 39.6 µM in the test on LOX IMVI melanoma. For the same compound, the GI50 in the test on CAKI-1 renal was 5.41 µM.
Take `O=C(/C=C/c1ccccc1)Nc1ccccc1SCCCCl`: the TGI in the test with OVCAR-4 ovarian is above 100 µM; with OVCAR-8 ovarian, above 69.8 µM; in the test with SW-620 colon, above 62.4 µM; with OVCAR-5 ovarian, above 100 µM; in the test with TK-10 renal, above 100 µM; with NCI-H23 lung, 40.7 µM. Further, the TGI in the test on BT-549 breast is above 36 µM; in the test with CAKI-1 renal it was above 100 µM; in the test with LOX IMVI melanoma, above 68.2 µM.
On to `COc1cccc(/C=C2\S/C(=N/Nc3nc(C)c(C)s3)NC2=O)c1O`, for which the TGI with OVCAR-4 ovarian, in the test with OVCAR-8 ovarian, in the test with SW-620 colon, in the test on OVCAR-5 ovarian, in the test with TK-10 renal and with NCI-H23 lung was above 100 µM throughout. The TGI in the test on BT-549 breast, in the test on CAKI-1 renal and in the test on LOX IMVI melanoma was above 100 µM each time.
Turning to `CC(=O)c1ccc2c(c1)CC1(C2)Cc2cc3c(c(C(=O)O)c2C1)CCC3` (stereo not given), the concentration for total growth inhibition (TGI) in the test on OVCAR-4 ovarian, in the test on OVCAR-8 ovarian, in the test on SW-620 colon, with OVCAR-5 ovarian, with TK-10 renal and in the test with NCI-H23 lung was above 100 µM throughout. The TGI with BT-549 breast, with CAKI-1 renal and with LOX IMVI melanoma was above 100 µM in each case.
On to `CC(Nc1ccc(Cl)c(Cl)c1)c1ccncc1` (stereo not given), for which the TGI in the test on OVCAR-4 ovarian is above 100 µM; in the test with OVCAR-8 ovarian it was 76.2 µM; in the test with SW-620 colon, 78.5 µM; in the test on TK-10 renal, above 100 µM; in the test on NCI-H23 lung, above 100 µM; in the test on BT-549 breast, 86.3 µM. In addition, the TGI in the test with CAKI-1 renal came to 97.8 µM; in the test on LOX IMVI melanoma it was 40 µM.

(Values after PubChem BioAssay (NCI).)
